According to US12172959B2, “Mono- or di-substituted indole derivatives as dengue viral replication inhibitors” (priority 2015, dated 2024):
pEC50: −log10 of the molar value. Where two headings read alike, the source gives them in different places.

Columns and labels:
DENV-4 strain H241 = test: Tetravalent RT-qPCR assay Protocol A, serotype 4 H241; type: cell-based; details: Dengue virus, DENV4, Vero, 72 h
Protocol: (§1) The antiviral activity of the compounds of the invention was tested against DENV-1 strain TC974#666 (NCPV; Table 6), DENV-2 strain 16681 (Table 7), DENV-3 strain H87 (NCPV; Table 8) and DENV-4 strains H241 (NCPV; Table 9A) and SG/06K2270DK1/2005 (Eden; Table 9B) in a RT-qPCR assay. Therefore, Vero cells were infected with either DENV-1, or -2, or -3, or -4 in the presence or absence of test compounds. At day 3 post-infection, the cells were lysed and cell lysates were used to prepare cDNA of both a viral target (the 3′UTR of DENV; Table 2) and a cellular reference gene (β-actin, Table 2). Subsequently, a duplex real time PCR was performed on a Lightcycler480 instrument. The generated Cp value is inversely proportional to the amount of RNA expression of these targets. Inhibition of DENV replication by test compound results in a shift of Cp's for the 3′UTR gene. On the other hand, if a test compound is toxic to the cells, a similar effect on β-actin expression will be observed. The comparative ΔΔCp method is used to calculate EC50, which is based on the relative gene expression of the target gene (3′UTR) normalized with the cellular housekeeping gene (β-actin).
(§2) The culture medium consisted of minimal essential medium supplemented with 2% of heat-inactivated fetal calf serum, 0.04% gentamycin (50 mg/mL) and 2 mM of L-glutamine. Vero cells, obtained from ECACC, were suspended in culture medium and 75 μL/well was added in 96-well plates (10000 cells/well), which already contain the antiviral compounds. […] In addition, each plate contains wells which are assigned as virus controls (containing cells and virus in the absence of compound) and cell controls (containing cells in the absence of virus and compound). Once the cells were added in the plates, the plates were incubated in a fully humidified incubator (37° C., 5% CO2) until the next day. Dengue viruses serotype-1, 2, 3 and 4 were diluted in order to obtain a Cp of ˜22-24 in the assay. Therefore, 25 μL of virus suspension was added to all the wells containing test compound and to the wells assigned as virus control. In parallel, 25 μL of culture medium was added to the cell controls. Next, the plates were incubated for 3 days in a fully humidified incubator (37° C., 5% CO2). After 3 days, the supernatant was removed from the wells and the cells were washed twice with ice-cold PBS (˜100 μL). The cell pellets within the 96-well plates were stored at −80° C. for at least 1 day. Next, RNA was extracted using the Cells-to-CT™ lysis kit, according to the manufacturer's guideline (Life Technologies). The cell lysates can be stored at −80° C. or immediately used in the reverse transcription step.
(§3) In preparation of the reverse transcription step, mix A (table 3A) was prepared and 7.57 μL/well was dispensed in a 96-well plate. After addition of 5 μL of the cell lysates, a five minute denaturation step at 75° C. was performed (table 3B). Afterwards, 7.43 μL of mix B was added (table 3C) and the reverse transcription step was initiated (table 3D) to generate cDNA.
(§4) Finally, a RT-qPCR mix was prepared, mix C (table 4A), and 22.02 μL/well was dispensed in 96-well LightCycler qPCR plates to which 3 μL of cDNA was added and the qPCR was performed according to the conditions in table 4B on a LightCycler 480.
(§5) Using the LightCycler software and an in-house LIMS system, dose response curves for each compound were calculated and the half maximal effective concentration (EC50) and the half maximal cytotoxic concentration (CC50) were determined.

Vero cells [1] = test: in vitro; type: cell-based; details: African green monkey, 3 days
Protocol: as §1, §2, §5

in vitro = type: cell-based; details: African green monkey, CC50
Protocol: as §1, §2, §5

DENV-2 strain 16681 = test: Tetravalent RT-qPCR assay Protocol A, serotype 2; type: cell-based; details: Dengue virus, DENV2, 72 h; Protocol A, RT-qPCR serotype 2 16681, Vero cells, day 3; read-out: EC50
Protocol: as §1, §2, §3, §4, §5

DENV-2 16681 strain = test: DENV-2 antiviral assay (eGFP fluorescence, Vero cells); type: cell-based, Dengue virus; details: DENV-2 16681 eGFP, MOI 0.5, 3 days
Protocol: The antiviral activity of all the compounds of the invention was tested against the DENV-2 16681 strain which was labeled with enhanced green fluorescent protein (eGPF; Table 1). The culture medium consists of minimal essential medium supplemented with 2% of heat-inactivated fetal calf serum, 0.04% gentamycin (50 mg/mL) and 2 mM of L-glutamine. Vero cells, obtained from ECACC, were suspended in culture medium and 25 μL was added to 384-well plates (2500 cells/well), which already contain the antiviral compounds. Typically, these plates contain a 5-fold serial dilution of 9 dilution steps of the test compound at 200 times the final concentration in 100% DMSO (200 nL). […] Finally, each plate contains wells which are assigned as virus controls (containing cells and virus in the absence of compound), cell controls (containing cells in the absence of virus and compound) and medium controls (containing medium in the absence of cells, virus and compounds). To the wells assigned as medium control, 25 μL of culture medium was added instead of Vero cells. Once the cells were added to the plates, the plates were incubated for 30 minutes at room temperature to allow the cells to distribute evenly within the wells. Next, the plates were incubated in a fully humidified incubator (37° C., 5% CO2) until the next day. Then, DENV-2 strain 16681, labeled with eGFP, was added at a multiplicity of infection (MOI) of 0.5. Therefore, 15 μL of virus suspension was added to all the wells containing test compound and to the wells assigned as virus control. In parallel, 15 μL of culture medium was added to the medium and cell controls. Next, the plates were incubated for 3 days in a fully humidified incubator (37° C., 5% CO2). At the day of the read out, the eGFP fluorescence was measured using an automated fluorescence microscope at 488 nm (blue laser). Using an in-house LIMS system, inhibition dose response curves for each compound were calculated and the half maximal effective concentration (EC50) was determined. Therefore, the percent inhibition (I) for every test concentration is calculated using the following formula: I=100*(ST−SCC)/(SVC−SCC); ST, SCC and SVC are the amount of eGFP signal in the test compound, cell control and virus control wells, respectively. The EC50 represents the concentration of a compound at which the virus replication is inhibited with 50%, as measured by a 50% reduction of the eGFP fluorescent intensity compared to the virus control. The EC50 is calculated using linear interpolation.

Vero cells [2] = details: African green monkey
DENV-1 strain TC974#666 = test: Tetravalent RT-qPCR assay Protocol A, serotype 1; type: cell-based; details: Dengue virus, DENV1, 72 h, RT-qPCR serotype 1 TC974#666, Vero cells, day 3
Protocol: as §1, §2, §3, §4, §5

DENV-3 strain H87 = test: Tetravalent RT-qPCR assay Protocol A, serotype 3; type: cell-based; details: Dengue virus, DENV3, 72 h, RT-qPCR serotype 3 H87, Vero cells, day 3
Protocol: as §1, §2, §3, §4, §5

COc1cc(NC(C(=O)c2c[nH]c3cc(OC)c(OC(F)(F)F)cc23)c2ccc(Cl)cc2OC)cc(S(C)(=O)=O)c1 (single isomer, unassigned) [Compound 10A, 2-(4-chloro-2-methoxyphenyl)-2-((3-methoxy-5-(methylsulfonyl)phenyl)amino)-1-(6-methoxy-5-(trifluoromethoxy)-1H-indol-3-yl)ethanone]
pEC50 (DENV-4 strain H241): 7.96 | CC50 (Vero cells [1]): 1000 nM | CC50 at 3 days (in vitro): 1600 nM | pEC50 (DENV-2 strain 16681): 10.24 | pEC50 (DENV-2 16681 strain): 9.92 | CC50 (Vero cells [2]): 2600 nM | pEC50 (DENV-1 strain TC974#666): 9.57 | pEC50 (DENV-3 strain H87): 8.43
